Experimental data: publication PMC10066365, “Nemacol is a small molecule inhibitor of C. elegans vesicular acetylcholine transporter with anthelmintic potential” (Nature Communications, 2023)
Several values for one entry are separate records, joined by “and”; a condition that tells them apart may be missing. Equal entries are not always repeated. Where two headings read alike, the source gives them in different places.

How the values were obtained:
C. elegans DA1316 = assay: C. elegans 3-day liquid viability assay, DA1316 avr-14; avr-15; […]; assay type: in vivo, Caenorhabditis elegans; settings: DA1316, nemacol-1 0
C. elegans unc-17(e245) = settings: for development average norm L4/As / viability Avg: CB245 unc-17(e245); for nemacol-1 x ivermectin matrix dose-response raw data: unc-17(e245) + 0 uM nemacol, 3 replicate columns
Haemonchus contortus = Haemonchus contortus L3 Migration Trap Assay (motility, 24 h exposure); settings: hc weybridge, 24 h; for raw: raw motility readout
C. elegans = C. elegans 3-day liquid viability assay, Nemacol-1 x Ivermectin matrix, wild type; settings: for development average norm L4/As / viability Avg / average progress to L4 (development) / average viability (relative to control): N2; for average progress to L4 (development) / average viability (relative to control): Nemacol-1-1 0; for nemacol-1 x ivermectin matrix dose-response raw data: wt (N2) + 0 uM nemacol, 3 replicate columns
[1] = ivermectin 0.001875 uM (row head 1.875)
[2] = ivermectin 0.00375 uM (row head 3.75)
[3] = ivermectin 0.06 uM (row head 60)
[4] = ivermectin 0.0195312 µM + Nemacol_53 26.4 µM
[5] = ivermectin 0.0195312 µM + Nemacol_53 16.8 (unit not given)
[6] = ivermectin 0.078125 µM + Nemacol_53 26.4 µM
[7] = ivermectin 0.078125 µM + Nemacol_53 16.8 (unit not given)
[8] = ivermectin 5 µM + Nemacol_53 16.8 (unit not given)
[9] = ivermectin 0.00046875 uM (Fig. 5AC sheet)
[10] = ivermectin 0.0009375 uM (Fig. 5AC sheet)
[11] = ivermectin 0.001875 uM (Fig. 5AC sheet)
[12] = ivermectin 0.00375 uM (Fig. 5AC sheet)
[13] = ivermectin 0.03 uM (Fig. 5AC sheet)
[14] = ivermectin 0.06 uM (Fig. 5AC sheet)

Question: Which “total animals normalized to corresponding controls” value (from here on “total animals normalized”) (C. elegans DA1316; ivermectin 0.0009375 uM) does the source give for `CC[C@H](C)[C@H]1O[C@]2(CC[C@@H]1C)C[C@@H]1C[C@@H](C/C=C(\C)[C@@H](O[C@H]3C[C@H](OC)[C@@H](O[C@H]4C[C@H](OC)[C@@H](O)[C@H](C)O4)[C@H](C)O3)[C@@H](C)/C=C/C=C3\CO[C@@H]4[C@H](O)C(C)=C[C@@H](C(=O)O1)[C@]34O)O2` [ivermectin] here?
Answer: Its value is 111.56.

Question: And the “total animals normalized” value (C. elegans DA1316; ivermectin 0.001875 uM)?
Answer: Its value is 102.36.

Question: And the “total animals normalized” value (C. elegans DA1316; ivermectin 0.00375 uM)?
Answer: Its value is 113.75.

Question: And the “total animals normalized” value (C. elegans DA1316; ivermectin 0.03 uM)?
Answer: The value was 108.02.

Question: What about the “total animals normalized” value (C. elegans DA1316; ivermectin 0.06 uM) of the same molecule?
Answer: The value was 93.85.

Question: And the “development average norm L4/As” value (C. elegans unc-17(e245); ivermectin 0.00046875 uM)?
Answer: Its value is 91.4.

Question: What about the “viability Avg” value (C. elegans unc-17(e245); ivermectin 0.00046875 uM) of the same molecule?
Answer: The value was 0.92.

Question: What about the “development average norm L4/As” value (C. elegans unc-17(e245); ivermectin 0.0009375 uM) of the same molecule?
Answer: Its value is 102.0.

Question: What about the “viability Avg” value (C. elegans unc-17(e245); ivermectin 0.0009375 uM) of the same molecule?
Answer: The value was 1.02.

Question: What about the “development average norm L4/As” value (C. elegans unc-17(e245); ivermectin 0.001875 uM) of the same molecule?
Answer: The value was 96.6.

Question: And the “viability Avg” value (C. elegans unc-17(e245); ivermectin 0.001875 uM)?
Answer: The value was 0.97.

Question: What about the “development average norm L4/As” value (C. elegans unc-17(e245); ivermectin 0.00375 uM) of the same molecule?
Answer: The value was 94.6.

Question: What about the “viability Avg” value (C. elegans unc-17(e245); ivermectin 0.00375 uM) of the same molecule?
Answer: The value was 0.95.

Question: What about the “development average norm L4/As” value (C. elegans unc-17(e245); ivermectin 0.03 uM) of the same molecule?
Answer: Its value is 1.1.

Question: And the “viability Avg” value (C. elegans unc-17(e245); ivermectin 0.03 uM)?
Answer: The value was 0.03.

Question: And the “development average norm L4/As” value (C. elegans unc-17(e245); ivermectin 0.06 uM)?
Answer: Its value is 0.0.

Question: What about the “viability Avg” value (C. elegans unc-17(e245); ivermectin 0.06 uM) of the same molecule?
Answer: Its value is 0.00.

Question: And the “nemacol-1 x ivermectin matrix dose-response raw data” value (C. elegans unc-17(e245); [1])?
Answer: Its value is 100.0 and 98.2 and 92.0.

Question: And the “nemacol-1 x ivermectin matrix dose-response raw data” value (C. elegans unc-17(e245); [2])?
Answer: Its value is 94.6 and 102.2 and 87.1.

Question: What about the “nemacol-1 x ivermectin matrix dose-response raw data” value (C. elegans unc-17(e245); [3]) of the same molecule?
Answer: Its value is 0.0.

Question: And the efficacy (Haemonchus contortus; [4])?
Answer: The efficacy was 51.6335 and 46.2111 and 62.2283.

Question: What about the efficacy (Haemonchus contortus; [5]) of the same molecule?
Answer: The efficacy was 45.9092 and 67.7834 and 50.4898.

Question: What about the efficacy (Haemonchus contortus; [6]) of the same molecule?
Answer: Its efficacy is 64.6293 and 71.8721 and 59.357.

Question: And the efficacy (Haemonchus contortus; [7])?
Answer: The efficacy was 51.0321 and 52.0838 and 33.3542.

Question: What about the efficacy (Haemonchus contortus; ivermectin 0.078125 µM alone) of the same molecule?
Answer: The efficacy was 36.1803 and 63.8058 and 55.3013.

Question: What about the efficacy (Haemonchus contortus; ivermectin 0.3125 µM + Nemacol_53 26.4 µM) of the same molecule?
Answer: The efficacy was 79.9766 and 60.2317 and 86.7864.

Question: What about the efficacy (Haemonchus contortus; ivermectin 0.3125 µM + Nemacol_53 16.8 (unit not given)) of the same molecule?
Answer: The efficacy was 66.3699 and 69.3635 and 88.9679.

Question: What about the efficacy (Haemonchus contortus; ivermectin 0.3125 µM alone) of the same molecule?
Answer: The efficacy was 59.3102 and 77.8029 and 70.3944.

Question: What about the efficacy (Haemonchus contortus; ivermectin 1.25 µM + Nemacol_53 26.4 µM) of the same molecule?
Answer: Its efficacy is 80.8981 and 87.2376 and 93.0175.

Question: What about the efficacy (Haemonchus contortus; ivermectin 1.25 µM + Nemacol_53 16.8 (unit not given)) of the same molecule?
Answer: Its efficacy is 94.1091 and 79.6798 and 82.4964.

Question: And the efficacy (Haemonchus contortus; ivermectin 1.25 µM alone)?
Answer: Its efficacy is 87.3643 and 74.9707 and 86.5339.

Question: What about the efficacy (Haemonchus contortus; ivermectin 5 µM + Nemacol_53 26.4 µM) of the same molecule?
Answer: Its efficacy is 82.4313 and 91.8131 and 94.4761.

Question: What about the efficacy (Haemonchus contortus; [8]) of the same molecule?
Answer: The efficacy was 92.0083 and 91.7168 and 89.2099.

Question: What about the efficacy (Haemonchus contortus; ivermectin 5 µM alone) of the same molecule?
Answer: Its efficacy is 83.6288 and 93.388 and 88.8663.

Question: And the efficacy (Haemonchus contortus; ivermectin 20 µM + Nemacol_53 26.4 µM)?
Answer: Its efficacy is 86.7838 and 88.1791 and 95.9929.

Question: And the efficacy (Haemonchus contortus; ivermectin 20 µM + Nemacol_53 16.8 (unit not given))?
Answer: The efficacy was 95.5746 and 77.0116 and 89.754.

Question: And the efficacy (Haemonchus contortus; ivermectin 20 µM alone)?
Answer: Its efficacy is 95.1061 and 89.4651 and 83.7772.

Question: What about the raw (Haemonchus contortus; ivermectin 0.0012207 µM + Nemacol_53 26.4 µM) of the same molecule?
Answer: Its raw is 51596.5 and 71143.5 and 66277.5.

Question: And the raw (Haemonchus contortus; ivermectin 0.0012207 µM + Nemacol_53 16.8 (unit not given))?
Answer: Its raw is 67834.5 and 50419 and 52275.5.

Question: What about the raw (Haemonchus contortus; ivermectin 0.0012207 µM alone) of the same molecule?
Answer: The raw was 49240 and 71073.5 and 61317.

Question: What about the raw (Haemonchus contortus; ivermectin 0.00488281 µM + Nemacol_53 26.4 µM) of the same molecule?
Answer: The raw was 28751.5 and 44196 and 37912.5.

Question: And the raw (Haemonchus contortus; ivermectin 0.00488281 µM alone)?
Answer: The raw was 43303 and 44672.5 and 57159.5.

Question: What about the raw (Haemonchus contortus; [4]) of the same molecule?
Answer: Its raw is 27870 and 30994.5 and 21765.

Question: What about the raw (Haemonchus contortus; [5]) of the same molecule?
Answer: The raw was 31168.5 and 18564 and 28529.

Question: And the raw (Haemonchus contortus; ivermectin 0.0195312 µM alone)?
Answer: The raw was 32641 and 25525.5 and 49250.5.

Question: What about the raw (Haemonchus contortus; [6]) of the same molecule?
Answer: Its raw is 20381.5 and 16208 and 23419.5.

Question: And the raw (Haemonchus contortus; [7])?
Answer: Its raw is 28216.5 and 27610.5 and 38403.

Question: What about the raw (Haemonchus contortus; ivermectin 0.078125 µM alone) of the same molecule?
Answer: Its raw is 36774.5 and 20856 and 25756.5.

Question: And the raw (Haemonchus contortus; ivermectin 0.3125 µM alone)?
Answer: Its raw is 23446.5 and 12790.5 and 17059.5.

Question: What about the raw (Haemonchus contortus; ivermectin 1.25 µM alone) of the same molecule?
Answer: Its raw is 7281 and 14422.5 and 7759.5.

Question: What about the raw (Haemonchus contortus; [8]) of the same molecule?
Answer: The raw was 4605 and 4773 and 6217.5.

Question: And the “development average norm L4/As” value (C. elegans; [9])?
Answer: The value was 99.0.

Question: And the “viability Avg” value (C. elegans; [9])?
Answer: Its value is 0.99.

Question: And the “development average norm L4/As” value (C. elegans; [10])?
Answer: Its value is 105.0.

Question: And the “viability Avg” value (C. elegans; [10])?
Answer: Its value is 1.05.

Question: And the “average progress to L4 (development)” value (C. elegans; ivermectin 0.0009375 uM)?
Answer: The value was 107.265.

Question: And the “average viability (relative to control)” value (C. elegans; ivermectin 0.0009375 uM)?
Answer: The value was 1.077.

Question: And the “development average norm L4/As” value (C. elegans; [11])?
Answer: The value was 102.7.

Question: What about the “viability Avg” value (C. elegans; [11]) of the same molecule?
Answer: Its value is 1.03.

Question: And the “average progress to L4 (development)” value (C. elegans; ivermectin 0.001875 uM)?
Answer: Its value is 88.2297.

Question: What about the “average viability (relative to control)” value (C. elegans; ivermectin 0.001875 uM) of the same molecule?
Answer: The value was 0.8852.

Question: What about the “development average norm L4/As” value (C. elegans; [12]) of the same molecule?
Answer: The value was 101.8.

Question: What about the “viability Avg” value (C. elegans; [12]) of the same molecule?
Answer: The value was 1.03.

Question: And the “average progress to L4 (development)” value (C. elegans; ivermectin 0.00375 uM)?
Answer: The value was 85.4056.

Question: What about the “average viability (relative to control)” value (C. elegans; ivermectin 0.00375 uM) of the same molecule?
Answer: Its value is 0.8507.

Question: What about the “development average norm L4/As” value (C. elegans; [13]) of the same molecule?
Answer: The value was 33.1.

Question: What about the “viability Avg” value (C. elegans; [13]) of the same molecule?
Answer: The value was 0.89.

Question: What about the “average progress to L4 (development)” value (C. elegans; ivermectin 0.03 uM) of the same molecule?
Answer: Its value is 25.8319.

Question: What about the “average viability (relative to control)” value (C. elegans; ivermectin 0.03 uM) of the same molecule?
Answer: Its value is 0.6373.

Question: And the “development average norm L4/As” value (C. elegans; [14])?
Answer: Its value is 0.0.

Question: And the “viability Avg” value (C. elegans; [14])?
Answer: The value was 0.11.

Question: What about the “average progress to L4 (development)” value (C. elegans; ivermectin 0.06 uM) of the same molecule?
Answer: The value was 0.

Question: And the “average viability (relative to control)” value (C. elegans; ivermectin 0.06 uM)?
Answer: Its value is 0.09164.

Question: What about the “nemacol-1 x ivermectin matrix dose-response raw data” value (C. elegans; [1]) of the same molecule?
Answer: Its value is 131.9 and 90.0 and 88.0.

Question: What about the “nemacol-1 x ivermectin matrix dose-response raw data” value (C. elegans; [2]) of the same molecule?
Answer: Its value is 106.4 and 120.0 and 114.0.

Question: What about the “nemacol-1 x ivermectin matrix dose-response raw data” value (C. elegans; ivermectin 0.03 uM (row head 30)) of the same molecule?
Answer: Its value is 48.9 and 56.7 and 24.0.

Question: And the “nemacol-1 x ivermectin matrix dose-response raw data” value (C. elegans; [3])?
Answer: Its value is 12.8 and 13.3 and 2.0.
